Experimental data published in US11273152B2, “TRPV2 antagonists” (Instituto de Medicina Molecular João Lobo Antunes, priority 2017, dated 2022).
Each block holds one molecule with its values, some of them ahead of it.

Columns and labels:
TRPC7 = TRPC7 (Homo sapiens, UniProt Q9HCX4); test: Fluorescence cell-based assay, TRPC7; conditions: membrane potential dye, spread in log units, duplicate
Description: (§1) The assays were performed at SB Discovery (Glasgow, UK) on a fee-for-service basis. Human TRP cells were trypsinised, counted and seeded in black, clear-bottomed 96 well plates at a density of 50,000 cells per well in 100 μL volume and incubated overnight. Next day, the cells were loaded with calcium 5 dye or membrane potential dye. TRPV1-5, TRPA1, TRPM2, TRPM3, and TRPM8 were tested using the calcium 5 dye. TRPC1, TRPC3-7, and TRPM4-5 were tested using the membrane potential dye. Both dye solutions were made up in HEPES buffered Hank's balanced salt solution (HBSS). Dye solution (90 μL) was added to the wells and incubated at 37° C. for 1 hour. Test compounds and standard inhibitors (10 μL) were then added to the wells and incubated at room temperature for 10 minutes. The plates were then placed in the flexstation and fluorescence monitored every 1.52 seconds. After 20 seconds agonist was added and the fluorescence monitored for 2 minutes at 485 nm/525 nm and 530 nm/565 nm, Ex/Em, for the calcium 5 dye and the membrane potential dye respectively. Controls-TRPV1: capsazepine; TRPV2: tranilast; TRPV3: ruthenium red; TRPV4: ruthenium red; TRPV5: Gd^3+; TRPA1, ruthenium red; TRPC1: Gd^3+; TRPC3: Pyr3; TRPC4: ML 204; TRPC5: ML 204; TRPC6: ML 204; TRPC7: SKF 96365; TRPM2: 2-APB; TRPM3: Mef acid; TRPM4: clotrimazole; TRPM5: TPPO; TRPM8: 2-APB. […]

TRPV2 [1] = target: T1, TRPV2 (Homo sapiens, UniProt Q9Y5S1); test: Manual patch-clamp assay, hTRPV2 stable HEK-293 cells; format: cell-based; conditions: n=3
T1 sequence (Q9Y5S1 1-764): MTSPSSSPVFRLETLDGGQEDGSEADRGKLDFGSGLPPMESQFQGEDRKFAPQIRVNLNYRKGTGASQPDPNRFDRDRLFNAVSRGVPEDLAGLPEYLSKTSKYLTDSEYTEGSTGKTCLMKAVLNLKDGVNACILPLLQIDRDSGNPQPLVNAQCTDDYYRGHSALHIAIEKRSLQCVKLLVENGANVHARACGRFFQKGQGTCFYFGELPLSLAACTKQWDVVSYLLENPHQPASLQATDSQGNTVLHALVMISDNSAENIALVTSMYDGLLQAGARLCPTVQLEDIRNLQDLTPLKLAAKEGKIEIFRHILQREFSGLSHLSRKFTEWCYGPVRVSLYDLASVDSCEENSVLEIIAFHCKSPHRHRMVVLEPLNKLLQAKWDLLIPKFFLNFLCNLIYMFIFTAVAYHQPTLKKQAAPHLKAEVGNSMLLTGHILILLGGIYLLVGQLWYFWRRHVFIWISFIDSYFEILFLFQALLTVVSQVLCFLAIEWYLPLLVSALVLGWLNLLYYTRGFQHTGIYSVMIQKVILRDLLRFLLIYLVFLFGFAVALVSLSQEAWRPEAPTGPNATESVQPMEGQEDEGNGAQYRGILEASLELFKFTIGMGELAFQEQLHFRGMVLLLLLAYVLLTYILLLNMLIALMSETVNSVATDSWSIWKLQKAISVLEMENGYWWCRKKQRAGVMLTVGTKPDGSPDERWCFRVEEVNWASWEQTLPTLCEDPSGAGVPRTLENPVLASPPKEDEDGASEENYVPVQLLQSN
Description: The assays were performed at SB Discovery (Glasgow, UK) on a fee-for-service basis. Concentration-response curves and washout assays were performed using a manual patch clamp method. HEK-293 cells were grown and prepared, according to the adapted procedure for hTRPV2 stable cell lines at SB Discovery. Cells were serum starved for approximately 24 hours and then changed to serum-containing media prior to electrophysiology testing. The manual patch-clamp assay was carried out at room temperature using a traditional electrophysiological unit. Cells were used within 2-3 hours after addition of serum containing media to the cells. The standard extracellular solution contained 145 mM NaCl, 4 mM KCl, 2 mM CaCl2, 1 mM MgCl2, 10 mM HEPES and 10 mM glucose. The pH was adjusted to 7.4 with NaOH, and the osmolarity was measured as 311 mOsm/L. The standard intracellular solution contained 50 mM KCl, 10 mM NaCl, 60 mM KF, 2 mM MgCl2, 20 mM EGTA and 10 mM HEPES. The pH was adjusted to 7.2 with KOH and the osmolarity was measured as 286 mOsm/L. A standard ramp protocol was used to monitor currents upon addition of control (extracellular solution) and compound solutions. The voltage protocol consisted of a series of voltage ramps from −100 mV to +100 mV, every 5 seconds, from a holding potential of −60 mV. The maximum outward current values during the recordings at +100 mV were used for analysis. Manual patch clamp experiments were carried out using an Axon 200B amplifier and a Digidata 1440A acquisition system from Axon Instruments (Molecular Devices, USA). The software program pClamp (version 10) from Axon Instruments was used to stimulate and record electrical activity. Capacitative transients were compensated electronically from the recordings, however the voltage drop across the series resistance and the liquid junction potential were not compensated. The series resistance was generally less than 10 MΩ, with a mean cell capacity of approximately 25 pF. The GraphPad Prism (version 5) software was used to analyze and plot all graphs. The agonist (cannabidiol; Abcam #ab120448) was prepared as 100 mM stock in 100% DMSO and diluted to 4 μM or 10 μM in physiological solution prior to testing. Piperlongumine was prepared as 100 mM stock in 100% DMSO and diluted to the specified concentrations in physiological solution (100, 50, 10, 1 and 0.1 μM), also containing 4 μM or 10 μM cannabidiol. Ruthenium red (Sigma, #R2751) was prepared daily as 10 mM stock ion distilled water and diluted to 100 μM in physiological solution.

TRPA1 = TRPA1 (Homo sapiens, UniProt O75762); test: Fluorescence cell-based assay, TRPA1; conditions: calcium 5 dye, spread in log units, duplicate
Description: as §1

TRPV2 [2] = target: T1, TRPV2; test: Fluorescence cell-based assay, TRPV2 (cannabidiol-evoked calcium influx); conditions: spread in log units; n=2; read-out: IC50 against TRPV2, fluorescence-based assay (FIG. 2a)
Description: The assays were performed at SB Discovery (Glasgow, UK) on a fee-for-service basis. Human TRP cells were trypsinised, counted and seeded in black, clear-bottomed 96 well plates at a density of 50,000 cells per well in 100 μL volume and incubated overnight. Next day, the cells were loaded with calcium 5 dye or membrane potential dye. TRPV1-5, TRPA1, TRPM2, TRPM3, and TRPM8 were tested using the calcium 5 dye. TRPC1, TRPC3-7, and TRPM4-5 were tested using the membrane potential dye. Both dye solutions were made up in HEPES buffered Hank's balanced salt solution (HBSS). Dye solution (90 μL) was added to the wells and incubated at 37° C. for 1 hour. Test compounds and standard inhibitors (10 μL) were then added to the wells and incubated at room temperature for 10 minutes. The plates were then placed in the flexstation and fluorescence monitored every 1.52 seconds. After 20 seconds agonist was added and the fluorescence monitored for 2 minutes at 485 nm/525 nm and 530 nm/565 nm, Ex/Em, for the calcium 5 dye and the membrane potential dye respectively. Controls-TRPV1: capsazepine; TRPV2: tranilast; TRPV3: ruthenium red; TRPV4: ruthenium red; TRPV5: Gd^3+; TRPA1, ruthenium red; TRPC1: Gd^3+; TRPC3: Pyr3; TRPC4: ML 204; TRPC5: ML 204; TRPC6: ML 204; TRPC7: SKF 96365; TRPM2: 2-APB; TRPM3: Mef acid; TRPM4: clotrimazole; TRPM5: TPPO; TRPM8: 2-APB. Control data was in all cases within historical range.

TRPC7, sequence (Q9HCX4 whole entry): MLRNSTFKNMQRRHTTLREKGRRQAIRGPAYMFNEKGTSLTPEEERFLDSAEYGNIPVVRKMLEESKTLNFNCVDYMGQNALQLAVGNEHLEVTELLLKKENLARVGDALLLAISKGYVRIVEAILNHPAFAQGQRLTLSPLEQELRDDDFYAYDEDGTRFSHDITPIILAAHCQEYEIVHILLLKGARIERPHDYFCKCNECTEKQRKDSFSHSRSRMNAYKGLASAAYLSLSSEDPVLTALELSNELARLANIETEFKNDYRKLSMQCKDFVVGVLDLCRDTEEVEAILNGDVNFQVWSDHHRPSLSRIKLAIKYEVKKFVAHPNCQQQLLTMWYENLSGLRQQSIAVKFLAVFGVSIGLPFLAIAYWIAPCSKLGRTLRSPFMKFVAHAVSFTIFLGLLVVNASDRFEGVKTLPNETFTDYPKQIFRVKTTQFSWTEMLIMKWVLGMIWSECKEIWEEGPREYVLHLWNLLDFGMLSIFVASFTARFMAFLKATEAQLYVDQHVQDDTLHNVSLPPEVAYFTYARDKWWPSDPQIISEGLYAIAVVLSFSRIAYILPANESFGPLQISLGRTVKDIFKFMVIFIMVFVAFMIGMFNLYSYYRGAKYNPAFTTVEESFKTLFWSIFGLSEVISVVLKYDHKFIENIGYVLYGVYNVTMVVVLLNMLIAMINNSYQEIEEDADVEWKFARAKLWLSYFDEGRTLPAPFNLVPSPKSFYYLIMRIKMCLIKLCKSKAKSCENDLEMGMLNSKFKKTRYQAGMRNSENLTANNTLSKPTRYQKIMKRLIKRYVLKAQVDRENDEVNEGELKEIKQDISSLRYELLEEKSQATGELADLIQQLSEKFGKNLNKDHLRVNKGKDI
TRPA1, sequence (O75762 whole entry): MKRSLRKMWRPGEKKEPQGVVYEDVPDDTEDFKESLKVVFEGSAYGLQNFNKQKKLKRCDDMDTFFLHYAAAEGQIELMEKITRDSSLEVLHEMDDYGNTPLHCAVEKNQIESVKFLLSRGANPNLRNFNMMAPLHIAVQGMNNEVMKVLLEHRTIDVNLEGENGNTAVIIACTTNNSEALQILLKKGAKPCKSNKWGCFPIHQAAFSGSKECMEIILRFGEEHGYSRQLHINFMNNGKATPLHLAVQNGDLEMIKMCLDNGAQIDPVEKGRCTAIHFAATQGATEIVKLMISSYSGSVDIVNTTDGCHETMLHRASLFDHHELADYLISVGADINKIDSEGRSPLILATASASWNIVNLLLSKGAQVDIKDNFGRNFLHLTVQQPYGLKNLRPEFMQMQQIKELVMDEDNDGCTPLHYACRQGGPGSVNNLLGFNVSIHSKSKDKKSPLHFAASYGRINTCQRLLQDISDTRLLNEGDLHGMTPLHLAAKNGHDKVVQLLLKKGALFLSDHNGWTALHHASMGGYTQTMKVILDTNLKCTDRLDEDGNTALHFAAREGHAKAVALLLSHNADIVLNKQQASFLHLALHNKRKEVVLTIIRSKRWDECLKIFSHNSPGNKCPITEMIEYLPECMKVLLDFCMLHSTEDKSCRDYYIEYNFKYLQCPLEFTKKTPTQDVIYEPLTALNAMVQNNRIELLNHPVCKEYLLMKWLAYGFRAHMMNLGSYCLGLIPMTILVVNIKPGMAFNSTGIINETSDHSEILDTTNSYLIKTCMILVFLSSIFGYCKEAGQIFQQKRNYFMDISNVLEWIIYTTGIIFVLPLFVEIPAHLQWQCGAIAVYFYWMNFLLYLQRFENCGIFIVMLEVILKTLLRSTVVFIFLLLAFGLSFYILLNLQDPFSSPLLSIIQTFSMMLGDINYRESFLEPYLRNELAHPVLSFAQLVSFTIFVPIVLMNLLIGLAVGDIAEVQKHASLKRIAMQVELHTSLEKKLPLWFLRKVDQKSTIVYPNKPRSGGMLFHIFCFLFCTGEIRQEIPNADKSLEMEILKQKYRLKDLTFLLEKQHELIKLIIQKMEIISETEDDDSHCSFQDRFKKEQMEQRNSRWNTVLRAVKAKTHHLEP

IC50 (TRPC7): 103 µM
SMILES: COc1ccc(CCCOC(Cn2ccnc2)c2ccc(OC)cc2)cc1 (centres unmarked) [SKF 96365, reference compound]

SMILES: C=C(C)[C@@H]1CCC(C)=C[C@H]1c1c(O)cc(CCCCC)cc1O [cannabidiol, reference compound]
nHill (cannabidiol), TRPV2 (TRPV2 [1]): 0.6
EC50 (TRPV2 [1]; read-out: EC50 (cannabidiol), TRPV2): 3.8 µM

IC50 (TRPA1): 2.3 µM
SMILES: Cl.Cl.Cl.Cl.Cl.Cl.N.N.N.N.N.N.N.N.N.N.N.N.N.N.[O-2].[O-2].[Ru+3].[Ru+3].[Ru+4] [ruthenium red, reference compound]

IC50 (TRPV2 [2]): 2.3 ± 0.25 µM
SMILES: COc1ccc(/C=C/C(=O)Nc2ccccc2C(=O)O)cc1OC [tranilast, reference compound]
